Laboratory results: patent US11980607B2, “Methods of treating malignant lymphoproliferative disorders” (Actuate Therapeutics Inc., priority 2018, dated 2024)

Columns and labels:
[1] = Xenograft mice, 20 mg/kg intravenous, within 30 minutes; cited from earlier work
MyLa [2] = experiment: Proliferation assay (thymidine uptake); assay type: cell-based; conditions: Homo sapiens; MyLa (TCL), 48 hours then thymidine pulse; read-out: IC50 (μM) on Cell proliferation
Procedure: (§1) Cells were seeded at 1×10^4 cells/well in 96 well plates, and incubated with 9-ING-41 at indicated concentrations for 48 hours followed by pulsing with tritium labeled thymidine for overnight before being analyzed for thymidine uptake.
(§2) The IC50S of 9-ING-41 on cell survival and proliferation was calculated using an on-line IC50 calculation tool (https://www.aatbio.com/tools/ic50-calculator/).
(§3) 9-ING-41 can specifically induce lymphoma cell apoptosis without affecting normal lymphocytes. The thymidine incorporation assay in the presence or absence of 9-ING-41 was performed to test the role of GSK3 in lymphoma cell proliferation. […] The DLBCL lines required slightly higher concentrations. The IC50 of 9-ING-41 on cell proliferation for various lymphoma cell lines was calculated (Table 1).

OCI-LY1 = experiment: Proliferation assay (thymidine uptake); assay type: cell-based; conditions: Homo sapiens; OCI-LY1 (DLBCL), 48 hours then thymidine pulse; read-out: IC50 (μM) on Cell proliferation
Procedure: as §1, §2, §3

Jeko = experiment: Proliferation assay (thymidine uptake); assay type: cell-based; conditions: Homo sapiens; Jeko (MCL), 48 hours then thymidine pulse; read-out: IC50 (μM) on Cell proliferation
Procedure: as §1, §2, §3

SU-DHL6 [3] = experiment: Proliferation assay (thymidine uptake); assay type: cell-based; conditions: Homo sapiens, SU-DHL-6; SU-DHL6 (DLBCL), 48 hours then thymidine pulse; read-out: IC50 (μM) on Cell proliferation
Procedure: as §1, §2, §3

OCI-LY19 [4] = experiment: Proliferation assay (thymidine uptake); assay type: cell-based; conditions: Homo sapiens; OCI-LY19 (DLBCL), 48 hours then thymidine pulse; read-out: IC50 (μM) on Cell proliferation
Procedure: as §1, §2, §3

SeAx [5] = experiment: Proliferation assay (thymidine uptake); assay type: cell-based; conditions: Homo sapiens; SeAx (TCL), 48 hours then thymidine pulse; read-out: IC50 (μM) on Cell proliferation
Procedure: as §1, §2, §3

Karpas-299 = experiment: Proliferation assay (thymidine uptake); assay type: cell-based; conditions: Homo sapiens; Karpas-299 (TCL), 48 hours then thymidine pulse; read-out: IC50 (μM) on Cell proliferation
Procedure: as §1, §2, §3

Mino = experiment: Proliferation assay (thymidine uptake); assay type: cell-based; conditions: Homo sapiens; Mino (MCL), 48 hours then thymidine pulse; read-out: IC50 (μM) on Cell proliferation
Procedure: as §1, §2, §3

Granta-519 [6] = experiment: Proliferation assay (thymidine uptake); assay type: cell-based; conditions: Homo sapiens; Granta-519 (MCL), 48 hours then thymidine pulse; read-out: IC50 (μM) on Cell proliferation
Procedure: as §1, §2, §3

OCI-Ly3 = experiment: Proliferation assay (thymidine uptake); assay type: cell-based; conditions: Homo sapiens; OCI-Ly3 (DLBCL), 48 hours then thymidine pulse; read-out: IC50 (μM) on Cell proliferation
Procedure: as §1, §2, §3

[7] = test system: Caspase 3/7 activity in lymphoma cells; experiment: EnzChek Caspase 3 assay; assay type: cell-based; conditions: 24 hours
Procedure: An EnzChek caspase 3 assay (Thermo Fisher Scientific) was performed in accordance with the manufacturer's instructions. 100,000 cells were plated in a 12-well plate and treated with varying concentrations of 9-ING-41 for 24 hours in duplicate. At the end of treatment, cells were centrifuged at 200 rcf for 5 minutes and washed once with 1× PBS and lysed in 50 μL of 1× lysis buffer provided by the kit. For efficient lysis, cells were subjected to a single freeze-thaw cycle. The lysed cells were centrifuged again to remove cell debris, and the supernatant was used in the assay. 50 μL of 2× substrate working solution containing Z-DEVD-R110 substrate was added to the cell lysate, with a subsequent incubation at room temperature for 45 minutes. […] Both of these products were then measured using a Biotek synergy 2 fluorescent plate reader at corresponding wavelengths (excitation 496 nm/emission 520 nm). The fluorescent reading was normalized to the amount of protein in the cell lysate as determined via standard BCA assay (Pierce Thermo Fisher Scientific). Relative fluorescence was calculated after setting the no-treatment control to 1. […]

Mantle Cell lymphoma = experiment: Treatment of Mantle Cell Lymphoma in a human; assay type: in vivo; conditions: 3 mg/kg per day, six 21 day cycles
Procedure: A human suffering from Mantle Cell lymphoma is administered 3 mg/kg per day of 9-ING-41 for six 21 day cycles. After treatment, the human's MCL is in remission.

MyLa [8] = experiment: Apoptosis assay (Annexin V/PI), cell survival; assay type: cell-based; conditions: Homo sapiens; MyLa (TCL), 48 hours
Procedure: (§4) Cells were seeded at 5×10^5 cells/well in 24 well plates, and incubated with 9-ING-41 at indicated concentrations for 48 hours. The cells were then stained with FITC conjugated Annexin V (Life Technologies) and Propidium Iodide followed by analysis on a BD FACS Calibur flow cytometer.
as §2
(§5) Given that both GSK3α and GSK3β are overexpressed in lymphoma cells, and that both enzymes are implicated in multiple signaling pathways critical for cell functions, whether GSK3α and GSK3β are functionally supporting the survival and proliferation of lymphoma cells was examined. […] The inhibitory concentrations of 9-ING-41 at half of the maximal effect (IC50) on cell survival of various lymphoma cell lines was calculated (Table 1).

SU-DHL6 [9] = experiment: Apoptosis assay (Annexin V/PI), cell survival; assay type: cell-based; conditions: Homo sapiens, SU-DHL-6; SU-DHL6 (DLBCL), 48 hours
Procedure: as §4, §2, §5

OCI-LY19 [10] = experiment: Apoptosis assay (Annexin V/PI), cell survival; assay type: cell-based; conditions: Homo sapiens; OCI-LY19 (DLBCL), 48 hours
Procedure: as §4, §2, §5

SeAx [11] = experiment: Apoptosis assay (Annexin V/PI), cell survival; assay type: cell-based; conditions: Homo sapiens; SeAx (TCL), 48 hours
Procedure: as §4, §2, §5

Granta-519 [12] = experiment: Apoptosis assay (Annexin V/PI), cell survival; assay type: cell-based; conditions: Homo sapiens; Granta-519 (MCL), 48 hours
Procedure: as §4, §2, §5

Jeko derived xenograft = experiment: Jeko derived MCL xenograft mouse model; assay type: in vivo; conditions: NSG mice, 40 mg/kg every other day IP, day 17
Excerpt: The images shown were collected at the end of the experiment (day 17). […] An MCL xenograft mouse model was established by subcutaneously injecting NGS mice with Jeko cells expressing the firefly luciferase reporter gene Fluc. NSG (NOD.Cg-PrkdcscidIl2rgtm1Wjl/SzJ) mice used in these experiments were purchased from the Jackson Laboratory (Bar Harbor, Maine). Eight to ten mice of same sex at 8 weeks of age were subcutaneously injected with 5×10^6 Fluc expressing Jeko cells in the right flanks. Tumor engraftment was verified by imaging 4 days after Jeko cell inoculation. […] Tumor volumes were measured by an IVIS Imager (Xenogen, Alameda, CA) 20 minutes after IP injection of 200 ul of 15 mg/ml D-leuciferin (GoldBio, St. Louis, MO) and anesthetized with 2.5% isoflurane. All imaging variables were kept consistent for comparativeness. The experiment terminated when the largest tumor met the size limit of the IACUC protocol.

Cn1cc(C2=C(c3coc4ccc(F)cc34)C(=O)NC2=O)c2cc3c(cc21)OCO3 [9-ING-41, 3-(5-Fluorobenzofuran-3-yl)-4-(5-methyl-5H-[1,3]dioxolo[4,5-f]indol-7-yl)pyrrole-2,5-dione]
9-ING-41 concentration in plasma [1]: around 8 μM | 9-ING-41 concentration in the brain [1]: around 40 μM | IC50 (MyLa [2]): 0.19 µM | IC50 (OCI-LY1): 0.69 µM | IC50 (Jeko): 0.94 µM | IC50 (SU-DHL6 [3]): 0.84 µM | IC50 (OCI-LY19 [4]): 1.96 µM | IC50 (SeAx [5]): 0.38 µM | IC50 (Karpas-299): 0.26 µM | IC50 (Mino): 0.72 µM | IC50 (Granta-519 [6]): 0.38 µM | IC50 (OCI-Ly3): 1.03 µM | Concentration giving an increase in Caspase 3/7 activity [7]: ≥ 0.5 µM | Outcome after treatment (Mantle Cell lymphoma): in remission | IC50 (MyLa [8]): 0.69 µM | IC50 (SU-DHL6 [9]): 1.58 µM | IC50 (OCI-LY19 [10]): 2.21 µM | IC50 (SeAx [11]): 1.6 µM | IC50 (Granta-519 [12]): 0.77 µM | Tumor size and luciferase activity versus control (Jeko derived xenograft): smaller tumors with much lower luciferase activity
